Bridge positions count the residues as written; N and C are the ends. Ends that are not written are not given here.
Experiments:
NaV1.5 [1] = molecular target: T1, NaV1.5 (Homo sapiens, UniProt Q14524); assay type: cell-based, mammalian
NaV1.2 = test: Two-electrode voltage clamp in Xenopus oocytes, NaV1.2 modulation; assay type: cell-based, mammalian
NaV1.5 [2] = molecular target: T1, NaV1.5; test: Two-electrode voltage clamp in Xenopus oocytes, NaV1.5 modulation / concentration-response; assay type: cell-based, mammalian; details: NaV1.5, 1 µM
BgNaV1 [3] = test: State-dependence (toxin incubation without depolarizing pulses), BgNaV1; assay type: cell-based, Blattella germanica; details: BgNaV1, 1 µM
VdNaV1 = test: Two-electrode voltage clamp in Xenopus oocytes, VdNaV1 modulation / concentration-response; assay type: cell-based, Varroa destructor
mice = details: cited from earlier work
From the text: Spiders can be considered one of the most successful venomous animals ever to inhabit the planet with over 47,000 species characterized to date. Despite this diversity, no more than 100 spider species have had their venom investigated. With over ten million estimated biologically active peptides in spider venoms, this means that less than 0.01% of spider peptides have been studied, making spider venom an untapped treasure of biologically active compounds with promising discoveries in drug and bioinsecticide development. Phoneutria nigriventer are very ...

NaV1.5 [4] = molecular target: T1, NaV1.5; test: Current-voltage relationship, activation and steady-state inactivation, NaV1.5; assay type: cell-based, mammalian
BgNaV1 [5] = test: Voltage dependence of activation and steady-state inactivation, BgNaV1; assay type: cell-based, Blattella germanica
NaV1.4 = test: Two-electrode voltage clamp in Xenopus oocytes, NaV1.4 modulation; assay type: cell-based, mammalian
NaV1.6 = test: Two-electrode voltage clamp in Xenopus oocytes, NaV1.6 modulation; assay type: cell-based, mammalian
NaV1.5 [6] = molecular target: T1, NaV1.5; test: Recovery from inactivation, NaV1.5; assay type: cell-based, mammalian; details: NaV1.5, 1 µM
BgNaV1 [7] = test: Two-electrode voltage clamp in Xenopus oocytes, BgNaV1 modulation / concentration-response; assay type: cell-based, Blattella germanica
NaV1.8 [8] = molecular target: T2, NaV1.8 (Homo sapiens, UniProt Q9Y5Y9); test: Voltage dependence of activation and steady-state inactivation, NaV1.8; assay type: cell-based, mammalian
BgNaV1 [9] = test: Recovery from fast inactivation, BgNaV1; assay type: cell-based, Blattella germanica; details: BgNaV1, 1 µM
NaV1.1 [10] = molecular target: T3, NaV1.1 (Homo sapiens, UniProt P35498); test: Two-electrode voltage clamp in Xenopus oocytes, NaV1.1 modulation / concentration-response; assay type: cell-based, mammalian; details: NaV1.1, 1 µM
NaV1.8 [11] = molecular target: T2, NaV1.8; test: Two-electrode voltage clamp in Xenopus oocytes, NaV1.8 modulation / concentration-response; assay type: cell-based, mammalian; details: NaV1.8, 1 μM
NaV1.3 = test: Two-electrode voltage clamp in Xenopus oocytes, NaV1.3 modulation; assay type: cell-based, mammalian
NaV channels = test: NaV channel panel in Xenopus oocytes (ion selectivity, species selectivity); assay type: cell-based; details: presence of toxin, ion selectivity not altered
NaV1.1 [12] = molecular target: T3, NaV1.1; test: Voltage dependence of activation and steady-state inactivation, NaV1.1; assay type: cell-based, mammalian; details: NaV1.1, 1 µM
PnTx2-6 binding site = details: ref [14]; cited from earlier work
From the text: PnTx2-1 shares the highest sequence identity with PnTx2-5 and PnTx2-6, which are also isolated from the Phoneutria nigriventer venom fraction 2 [13]. PnTx2-5 and PnTx2-6 are the best-characterized toxins from the PhTx2 venom fraction. These two toxins share 90% sequence identity, with only five amino acid residues different (Figure 1). […] Both peptides modulate sodium chann ...

T1 sequence (Q14524 whole entry, looked up): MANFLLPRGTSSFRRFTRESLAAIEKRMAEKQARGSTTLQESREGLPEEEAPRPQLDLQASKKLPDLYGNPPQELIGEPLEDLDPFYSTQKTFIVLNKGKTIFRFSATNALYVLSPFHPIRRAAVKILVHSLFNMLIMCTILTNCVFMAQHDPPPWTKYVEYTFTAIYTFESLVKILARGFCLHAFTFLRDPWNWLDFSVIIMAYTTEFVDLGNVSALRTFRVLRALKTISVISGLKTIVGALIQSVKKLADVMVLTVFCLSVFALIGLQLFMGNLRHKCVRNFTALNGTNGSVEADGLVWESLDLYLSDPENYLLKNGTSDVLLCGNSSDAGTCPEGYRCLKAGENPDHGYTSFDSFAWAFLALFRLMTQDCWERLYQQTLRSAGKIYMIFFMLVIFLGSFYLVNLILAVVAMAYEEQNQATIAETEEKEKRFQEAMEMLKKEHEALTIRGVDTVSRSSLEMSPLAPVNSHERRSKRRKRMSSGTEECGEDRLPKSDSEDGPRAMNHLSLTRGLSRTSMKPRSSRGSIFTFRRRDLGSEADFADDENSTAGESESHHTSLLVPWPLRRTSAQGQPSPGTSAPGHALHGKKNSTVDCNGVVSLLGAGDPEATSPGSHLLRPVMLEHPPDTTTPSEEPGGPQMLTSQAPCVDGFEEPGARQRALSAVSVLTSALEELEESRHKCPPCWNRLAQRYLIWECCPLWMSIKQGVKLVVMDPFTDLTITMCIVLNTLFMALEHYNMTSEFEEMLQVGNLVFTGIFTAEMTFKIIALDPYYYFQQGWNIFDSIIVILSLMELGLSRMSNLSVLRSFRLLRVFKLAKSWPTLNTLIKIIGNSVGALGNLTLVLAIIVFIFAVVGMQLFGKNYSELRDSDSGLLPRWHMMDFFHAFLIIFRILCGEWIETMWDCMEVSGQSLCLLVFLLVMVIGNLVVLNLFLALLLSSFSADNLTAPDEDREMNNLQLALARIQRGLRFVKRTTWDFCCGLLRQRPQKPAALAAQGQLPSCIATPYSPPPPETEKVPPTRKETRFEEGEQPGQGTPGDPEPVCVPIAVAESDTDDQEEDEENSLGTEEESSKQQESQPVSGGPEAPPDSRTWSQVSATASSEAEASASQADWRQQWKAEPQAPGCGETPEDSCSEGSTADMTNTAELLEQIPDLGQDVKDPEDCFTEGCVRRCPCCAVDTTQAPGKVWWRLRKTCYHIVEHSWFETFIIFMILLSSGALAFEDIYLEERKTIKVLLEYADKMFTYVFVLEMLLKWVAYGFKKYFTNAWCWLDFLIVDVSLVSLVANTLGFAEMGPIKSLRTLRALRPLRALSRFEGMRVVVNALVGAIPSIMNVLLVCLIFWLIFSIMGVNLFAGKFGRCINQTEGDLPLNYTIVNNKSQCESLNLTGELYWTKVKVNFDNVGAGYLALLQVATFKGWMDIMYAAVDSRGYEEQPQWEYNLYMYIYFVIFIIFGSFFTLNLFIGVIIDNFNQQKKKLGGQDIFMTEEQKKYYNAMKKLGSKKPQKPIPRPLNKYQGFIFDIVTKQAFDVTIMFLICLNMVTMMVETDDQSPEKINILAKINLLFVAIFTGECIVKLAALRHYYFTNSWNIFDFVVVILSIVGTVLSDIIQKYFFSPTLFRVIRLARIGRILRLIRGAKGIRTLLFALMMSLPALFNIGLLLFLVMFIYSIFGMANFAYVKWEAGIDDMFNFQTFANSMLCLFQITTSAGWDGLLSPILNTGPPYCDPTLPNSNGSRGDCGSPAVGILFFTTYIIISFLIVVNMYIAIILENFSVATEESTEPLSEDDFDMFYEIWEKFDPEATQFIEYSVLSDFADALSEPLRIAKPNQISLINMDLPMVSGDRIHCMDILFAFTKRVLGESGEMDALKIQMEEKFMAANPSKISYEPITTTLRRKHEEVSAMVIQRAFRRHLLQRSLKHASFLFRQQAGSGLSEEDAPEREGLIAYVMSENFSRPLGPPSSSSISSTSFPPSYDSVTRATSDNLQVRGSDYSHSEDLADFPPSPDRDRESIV
T2 sequence (Q9Y5Y9 whole entry): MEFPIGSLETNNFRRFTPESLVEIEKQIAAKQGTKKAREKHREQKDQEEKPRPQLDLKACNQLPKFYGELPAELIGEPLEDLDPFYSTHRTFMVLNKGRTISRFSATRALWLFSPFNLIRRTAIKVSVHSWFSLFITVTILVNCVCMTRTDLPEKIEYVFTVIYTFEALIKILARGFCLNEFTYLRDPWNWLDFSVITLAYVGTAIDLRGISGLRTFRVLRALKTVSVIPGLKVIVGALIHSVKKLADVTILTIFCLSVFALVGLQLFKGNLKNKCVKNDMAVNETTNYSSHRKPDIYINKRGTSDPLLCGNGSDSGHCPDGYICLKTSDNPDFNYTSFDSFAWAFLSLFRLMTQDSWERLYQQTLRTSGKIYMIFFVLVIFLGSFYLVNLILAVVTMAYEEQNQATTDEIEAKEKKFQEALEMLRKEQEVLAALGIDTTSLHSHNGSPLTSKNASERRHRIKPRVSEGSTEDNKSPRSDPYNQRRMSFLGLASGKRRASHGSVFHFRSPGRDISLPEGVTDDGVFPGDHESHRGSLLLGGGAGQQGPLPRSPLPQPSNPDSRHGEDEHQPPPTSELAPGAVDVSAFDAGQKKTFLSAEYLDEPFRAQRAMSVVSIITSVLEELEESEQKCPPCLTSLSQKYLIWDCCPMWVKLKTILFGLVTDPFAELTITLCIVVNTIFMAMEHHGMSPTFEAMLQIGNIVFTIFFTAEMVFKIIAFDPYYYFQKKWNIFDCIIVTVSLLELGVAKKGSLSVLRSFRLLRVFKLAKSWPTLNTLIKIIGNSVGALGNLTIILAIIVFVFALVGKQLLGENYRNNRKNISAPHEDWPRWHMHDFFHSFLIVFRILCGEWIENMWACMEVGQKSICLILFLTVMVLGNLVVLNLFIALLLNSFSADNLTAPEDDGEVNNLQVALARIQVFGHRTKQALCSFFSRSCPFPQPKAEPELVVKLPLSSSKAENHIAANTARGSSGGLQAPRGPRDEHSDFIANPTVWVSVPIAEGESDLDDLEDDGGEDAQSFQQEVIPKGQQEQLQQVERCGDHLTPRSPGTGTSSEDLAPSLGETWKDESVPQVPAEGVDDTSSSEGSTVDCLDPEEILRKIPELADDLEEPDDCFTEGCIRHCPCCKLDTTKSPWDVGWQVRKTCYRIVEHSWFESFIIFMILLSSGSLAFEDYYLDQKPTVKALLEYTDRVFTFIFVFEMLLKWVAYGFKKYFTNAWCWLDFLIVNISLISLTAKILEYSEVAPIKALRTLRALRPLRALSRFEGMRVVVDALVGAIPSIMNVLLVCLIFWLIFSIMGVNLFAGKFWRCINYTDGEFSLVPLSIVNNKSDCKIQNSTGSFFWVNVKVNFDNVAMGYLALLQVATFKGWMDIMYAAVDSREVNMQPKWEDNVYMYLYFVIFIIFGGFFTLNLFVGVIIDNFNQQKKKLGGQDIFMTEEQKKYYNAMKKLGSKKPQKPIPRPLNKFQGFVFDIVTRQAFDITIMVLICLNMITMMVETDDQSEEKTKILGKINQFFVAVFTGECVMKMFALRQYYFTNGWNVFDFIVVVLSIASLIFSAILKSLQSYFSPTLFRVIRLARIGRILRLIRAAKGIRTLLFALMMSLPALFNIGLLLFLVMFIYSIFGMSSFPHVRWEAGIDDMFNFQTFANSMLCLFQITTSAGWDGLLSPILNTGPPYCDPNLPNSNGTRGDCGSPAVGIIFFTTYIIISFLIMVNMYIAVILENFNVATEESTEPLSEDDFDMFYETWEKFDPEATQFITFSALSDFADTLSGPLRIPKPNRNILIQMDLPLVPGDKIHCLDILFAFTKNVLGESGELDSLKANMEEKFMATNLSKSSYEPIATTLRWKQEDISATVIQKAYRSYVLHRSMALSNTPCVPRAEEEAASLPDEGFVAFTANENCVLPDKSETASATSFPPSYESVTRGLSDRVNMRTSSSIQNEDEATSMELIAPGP

Q: Which “decrease of the sodium current peak amplitude” value (NaV1.5 [1]) does the source give for `NC1=N[C@H](O)[C@H]2[C@H]3O[C@]4(O)O[C@@H]([C@@H](O)[C@@]2(N1)[C@@H]4O)[C@]3(O)CO` [tetrodotoxin (TTX), tetrodotoxin, reference compound] here?
A: The value was 50%.

Q: Which effect on channel (NaV1.2; NaV1.2, 1 μM) does the source give for “ATCAGQDKPCKETCDCCGERGECVCALSYEGKYRCICRQGNFLIAWHKLASCK (disulfide 3-17, 10-23, 14-52, 16-37, 25-35) [PnTx2-1]” here?
A: Its effect on channel is “not affected”.

Q: And the activity on channel (NaV1.2; NaV1.2, up to 5 µM, data not shown)?
A: The activity on channel was “no activity”.

Q: What about the effect on inactivation (NaV1.5 [2]) of the same compound?
A: Its effect on inactivation is “slowed the inactivation”.

Q: What about the “slowing of inactivation after closed-state incubation” value (BgNaV1 [3]; 2 min at −90 mV without depolarizing pulses, then pulse to 0 mV) of the same compound?
A: The value was “significant slowing down of inactivation”.

Q: What about the toxin interaction state (BgNaV1 [3]; closed state) of the same compound?
A: Its toxin interaction state is “toxin interaction with the channel in the closed state”.

Q: And the effect on inactivation (VdNaV1; VdNaV1, 1 μM)?
A: Its effect on inactivation is “profound effect on the inactivation”.

Q: And the EC50 (VdNaV1; VdNaV1, modulation (current at 30 ms / control peak), Hill fit, Xenopus oocytes, ND96 pH 7.5, 18–22 °C, holding −90 mV, mean ± SEM, n ≥ 3)?
A: The EC50 was 102 ± 14.7 nM.

Q: What about the signs after injection (mice; injected, ref [12]) of the same compound?
A: The signs after injection was “pruritus, lacrimation, increased salivation, sweating and agitation followed by spastic paralysis of the limbs”.

Q: What about the “toxicity after intracerebral injection” value (mice; intracerebral (i.c.), among the nine PhTx2 peptides, ref [13]) of the same compound?
A: Its value is “higher toxicity”.

Q: What about the “shift of midpoint of activation” value (NaV1.5 [4]; NaV1.5, 1 µM) of the same compound?
A: Its value is “the midpoint of activation shifted towards more depolarized potentials”.

Q: What about the “shift of steady-state inactivation curve” value (NaV1.5 [4]; NaV1.5, 1 µM) of the same compound?
A: Its value is “the steady-state inactivation curves shifted towards more hyperpolarized membrane potentials”.

Q: What about the “window of open probability” value (NaV1.5 [4]; NaV1.5, 1 µM) of the same compound?
A: Its value is “increased window of open probability”.

Q: And the V1/2 of activation (NaV1.5 [4]; NaV1.5, 1 µM toxin, control −53.1 ± 0.1, mean ± SEM, n ≥ 3)?
A: The V1/2 of activation was −45.3 ± 0.1 mV.

Q: What about the “V1/2 of steady-state inactivation” value (NaV1.5 [4]; NaV1.5, 1 µM toxin, control −78.4 ± 0.2, mean ± SEM, n ≥ 3) of the same compound?
A: The value was −87.5 ± 0.7 mV.

Q: What about the “effect on sodium peak current” value (NaV1.5 [4]; NaV1.5, Figure 2E, Figure 3B and Figure 5A) of the same compound?
A: The value was “inhibition of the sodium peak current”.

Q: What about the “binding at neurotoxin site 1” value (NaV1.5 [1]) of the same compound?
A: The value was “does not bind at site 1”.

Q: What about the “effect on peak amplitude after TTX” value (NaV1.5 [1]) of the same compound?
A: Its value is “additional reduction of the peak amplitude”.

Q: And the “completeness of steady-state inactivation” value (BgNaV1 [5]; BgNaV1, 1 µM)?
A: The value was “steady-state inactivation became incomplete after toxin addition”.

Q: What about the “shift of activation midpoint and steady-state inactivation” value (BgNaV1 [5]; BgNaV1, 1 µM) of the same compound?
A: Its value is “A shift in the midpoint of activation and in the voltage dependence of steady-state inactivation”.

Q: And the V1/2 of activation (BgNaV1 [5]; BgNaV1, 1 µM toxin, control −38.1 ± 0.1, mean ± SEM, n ≥ 3)?
A: The V1/2 of activation was −45.8 ± 0.3 mV.

Q: And the “non-inactivating current component of steady-state inactivation” value (BgNaV1 [5]; BgNaV1, 1 µM, mean ± SEM, n ≥ 3)?
A: The value was 62.3 ± 3.2%.

Q: What about the effect on channel (NaV1.4; NaV1.4, 1 μM) of the same compound?
A: The effect on channel was “not affected”.

Q: And the activity on channel (NaV1.4; NaV1.4, up to 5 µM, data not shown)?
A: Its activity on channel is “no activity”.

Q: And the effect on channel (NaV1.6; NaV1.6, 1 μM)?
A: Its effect on channel is “not affected”.

Q: And the activity on channel (NaV1.6; NaV1.6, up to 5 µM, data not shown)?
A: Its activity on channel is “no activity”.

Q: And the “recovery from inactivation” value (NaV1.5 [6])?
A: The value was “strongly enhanced the recovery from inactivation”.

Q: What about the “recovery from inactivation, τ” value (NaV1.5 [6]; control τ = 50.2 ± 3.0 ms, mean ± SEM, n ≥ 3) of the same compound?
A: The value was 22.8 ± 3.2 ms.

Q: And the effect on inactivation (BgNaV1 [7]; BgNaV1, 1 µM)?
A: Its effect on inactivation is “completely inhibited inactivation of BgNaV1 channels, resulting in sustained non-inactivating currents”.

Q: And the EC50 (BgNaV1 [7]; BgNaV1, modulation (current at 30 ms / control peak), Hill fit, Xenopus oocytes, ND96 pH 7.5, 18–22 °C, holding −90 mV, mean ± SEM, n ≥ 3)?
A: Its EC50 is 91.9 ± 17 nM.

Q: And the “modulation of gating kinetics” value (NaV1.8 [8]; NaV1.8, 1 μM)?
A: Its value is “No relevant modulation of the gating kinetics”.

Q: What about the V1/2 of activation (NaV1.8 [8]; NaV1.8, 1 µM toxin, control −11.5 ± 0.1, mean ± SEM, n ≥ 3) of the same compound?
A: The V1/2 of activation was −11.4 ± 0.1 mV.

Q: What about the “recovery from fast inactivation” value (BgNaV1 [9]) of the same compound?
A: The value was “does not influence the recovery from fast inactivation”.

Q: And the effect on inactivation (NaV1.1 [10])?
A: The effect on inactivation was “slowed the inactivation”.

Q: And the effect on inactivation (NaV1.8 [11])?
A: Its effect on inactivation is “slowed the inactivation”.

Q: What about the effect on channel (NaV1.3; NaV1.3, 1 μM) of the same compound?
A: Its effect on channel is “not affected”.

Q: And the activity on channel (NaV1.3; NaV1.3, up to 5 µM, data not shown)?
A: The activity on channel was “no activity”.

Q: And the reversal potential (NaV channels)?
A: The reversal potential was “No significant change in the reversal potential”.

Q: What about the “shift of midpoint of activation” value (NaV1.1 [12]) of the same compound?
A: Its value is “the midpoint of activation shifted towards more depolarized potentials”.

Q: What about the “shift of steady-state inactivation curve” value (NaV1.1 [12]) of the same compound?
A: Its value is “the steady-state inactivation curves shifted towards more hyperpolarized membrane potentials”.

Q: What about the “window of open probability” value (NaV1.1 [12]) of the same compound?
A: The value was “increased window of open probability”.

Q: With “CssIV: β-scorpion toxin CssIV (from Centruroides suffusus suffusus)” as the compound, how does the “competition with PnTx2-6” value (PnTx2-6 binding site) read?
A: Its value is “does not compete with PnTx2-6”.
